Laboratory results as given in patent US20210024498A1, “TETRAHYDROPYRROLE COMPOUND, PREPARATION METHOD THEREFOR, PHARMACEUTICAL COMPOSITION CONTAINING SAME, AND USE THEREOF” (MEDICONNS (SHANGHAI) BIOPHARMACEUTICAL CO., LTD, priority 2017, published 2021).
pIC50: −log10 of the molar value.

How the values were obtained:
[1] = molecular target: T1, D2 receptor (Homo sapiens, UniProt P14416); test: D2 receptor affinity assay (radioligand competition, 3H-7-OH-DPAT); format: binding; conditions: cloned D2 receptor expressed in HEK293 cell line; 3H-7-OH-DPAT 1 nM
T1 construct: expressed in transfected cells; host or cells: HEK293
T1 sequence (P14416 whole entry): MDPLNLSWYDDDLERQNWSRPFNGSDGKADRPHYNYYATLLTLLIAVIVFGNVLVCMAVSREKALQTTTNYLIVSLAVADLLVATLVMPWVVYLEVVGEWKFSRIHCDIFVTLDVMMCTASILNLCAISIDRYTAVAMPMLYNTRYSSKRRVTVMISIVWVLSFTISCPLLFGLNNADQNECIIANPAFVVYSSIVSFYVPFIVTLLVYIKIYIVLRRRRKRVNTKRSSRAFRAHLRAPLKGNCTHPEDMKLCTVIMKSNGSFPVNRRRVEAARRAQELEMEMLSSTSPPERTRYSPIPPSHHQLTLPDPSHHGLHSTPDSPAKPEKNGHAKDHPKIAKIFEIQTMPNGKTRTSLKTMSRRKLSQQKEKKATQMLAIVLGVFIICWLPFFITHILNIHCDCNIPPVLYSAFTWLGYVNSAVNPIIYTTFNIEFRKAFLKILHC
Description: (§1) Bioactivity Test • I. D2 receptor affinity assay: The affinity of the compound to D2 receptor was determined by radioligand competition assay, and the cloned D2 receptor was expressed in HEK293 cell line. • II. D2 receptor function assay: The ability of the compound to antagonize the D2 receptor was determined using a calcium mobilization assay (FLIPR). • III. DAT receptor function assay: The ability of the compound to inhibit DAT was determined by neurotransmitter transporter absorption assay.
• Experimental buffer: 50 mM Tris-HCl, pH 7.4, 5 mM MgCl2 • Washing buffer: 50 mM Tris-HCl pH 7.4, stored at 4° C. ready for use.
• The compound and positive control 7-OH-DPAT were serially diluted with DMSO, with the initial concentration of 2 mM and 4 times serial dilution, a total of 10 concentrations. 1 μL was transferred to the designated position of the 96-well plate. • 1 μL droperidol (final concentration 10 μM) was added to the positive control well. 1 μL DMSO was added to the negative control well.
• Receptor cell membrane was diluted to 10 μg/well with corresponding experimental buffer, with 100 μL cell membrane/well.
• 3H-7-OH-DPAT was diluted to 2 nM with corresponding experimental buffer, and the final concentration was 1 nM.
• After 100 μL of cell membrane and isotope were added, respectively, the reaction plate of the D2 receptor was incubated at room temperature for 1 hour. The GF/C filter plate was soaked in 0.3% PEI solution for more than half an hour. After the reaction was completed, the cell membrane was collected on the GF/C filter plate using the […], washed 4 times with cold washing buffer, and then dried in an oven at 50° C. for 1 hour. The dried GF/C filter plate was sealed at the bottom, 50 μL of scintillation fluid was added to each well and the well was sealed. Reads were obtained by MicroBeta and the data was analyzed using GraphPad Prism 5.0.
Ki=IC50/(1+isotope concentration/Kd)

[2] = molecular target: T1, D2 receptor; test: D2 receptor function assay, calcium mobilization (FLIPR); format: cell-based; conditions: HEK293, antagonism of D2 receptor
Description: as §1
• Cell line: HEK293 • DMEM medium (Invitrogen) • Fetal bovine serum (FBS, Invitrogen) • L-Glutamine (Invitrogen) G418 (Invitrogen) • Blasticidin (Invitrogen)
• Fluo-4 Direct Kit (Invitrogen)
• 250 mM Probenecid solution was formulated: according to the kit instructions, 1 mL of FLIPR buffer salt solution was added to 77 mg probenecid just before needed. • 2× (8 μM) Fluo-4 Direct™ loading buffer was formulated: the number of tubes in Fluo-4 Direct™ needed for the experiment was melted in advance. Just before needed, 10 ml of FLIPR buffer salt solution and 0.2 mL of 250 mM Probenecid solution were added to each tube and vortexed in dark for more than 5 minutes.
• a) One tube of cells was taken from the liquid nitrogen tank and quickly thawed in 37° C. water bath. • b) The cell suspension was added to a centrifuge tube to which the preheated 20 ml medium was added in advance. • c) The centrifuge tube was centrifuged at 1000 rpm for 5 minutes at room temperature. • d) The supernatant was slowly decanted to avoid affecting the precipitated cells. • e) The cells were resuspended with 10-30 ml medium by pipetting the cells gently with a pipette. • f) The viability and number of cells were calculated with the cell counter. • g) The cells were diluted to 1×10^5 cells/ml with medium, and inoculated in the 384-well polylysine coated cell plate at 20 μL/well. • h) The plate was incubated in an incubator at 5% CO2, 37° C. for 16 to 20 hours.
10 μL of experimental buffer salt solution was added into the cell plate according to the set program, and the fluorescence signal was read. 10 μL of agonist reference compound was further added at a given concentration to the cell plate and the fluorescence signal was read. After reading, the data was derived by “Max-Min” and “Read 90 to Maximum Allowed” methods in the software and EC80 of the corresponding cell line was calculated, and the reference compound with a concentration of 6× EC80 was prepared. • f) The FLIPR instrument software was run. 10 μL of the compound to be tested and the reference compound at a given concentration were added into the cell plate according to the set program, and the fluorescence signal was read. 10 μL of reference compound agonist was further added at a concentration of 6× EC80 to the cell plate and the fluorescence signal was read. • g) Data Analysis • Calculation formula for data in the project:
Inhibitor % activity=100−(signal value per well−average value for high dose control group of inhibitor)/(average value for DMSO control group−average value for high dose control group of inhibitor)*100%.

[3] = molecular target: DAT (Homo sapiens, UniProt Q01959); test: DAT transporter assay (neurotransmitter transporter absorption assay); format: cell-based
Chain of DAT (Q01959 whole entry, species assumed): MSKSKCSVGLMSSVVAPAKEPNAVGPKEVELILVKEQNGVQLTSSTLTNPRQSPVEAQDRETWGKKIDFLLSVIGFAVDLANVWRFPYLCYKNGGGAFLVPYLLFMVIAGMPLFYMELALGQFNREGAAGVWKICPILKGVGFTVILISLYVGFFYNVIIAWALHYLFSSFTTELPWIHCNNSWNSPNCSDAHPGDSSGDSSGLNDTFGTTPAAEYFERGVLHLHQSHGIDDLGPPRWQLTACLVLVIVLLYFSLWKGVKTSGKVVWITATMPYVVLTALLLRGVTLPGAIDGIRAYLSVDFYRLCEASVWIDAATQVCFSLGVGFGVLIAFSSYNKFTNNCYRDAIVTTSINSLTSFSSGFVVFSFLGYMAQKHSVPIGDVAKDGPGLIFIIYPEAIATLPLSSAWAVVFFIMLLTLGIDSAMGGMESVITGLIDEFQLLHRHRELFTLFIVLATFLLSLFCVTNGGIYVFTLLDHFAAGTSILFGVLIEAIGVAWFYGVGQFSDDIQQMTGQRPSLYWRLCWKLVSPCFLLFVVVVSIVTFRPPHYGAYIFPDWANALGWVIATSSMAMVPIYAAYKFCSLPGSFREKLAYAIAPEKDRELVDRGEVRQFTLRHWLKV
Description: as §1
• HBSS1×, REPES 20 mM, BSA 0.1%.
• Lyophilized fluorescent dye 1 vial, Assay buffer 10 mL.
• BTCP—hydrochloride (Sigma)
• i) The medium was preheated in 37° C. water bath in advance for more than 30 minutes for later use. • j) The preheated medium was taken out, disinfected with 75% alcohol, and put into a biosafety cabinet. • k) The cultured cells were taken out from the […], and the medium was removed by a vacuum pump. 1× DPBS was added, incubated for a moment, and then removed by a vacuum pump. Appropriate amount of 0.05% trypsin-EDTA was added for cell digestion. The digestion was terminated by 10% FBS medium, and the cells were pipetted and dispersed. • l) The dispersed cells were transferred into a 50 mL centrifuge tube with a pipette.
• a) The reference compound was diluted in a ratio of 1:3 to 10 concentration gradients with the detection buffer containing 0.1% BSA, with the highest concentration being 2 μM. The compound to be tested was diluted to 20 uM with the detection buffer containing 0.1% BSA. • b) A centrifuge (750 rpm, 15 s) was used to spin off the culture solution in the cell culture plate, and the compound solution in step 1 was transferred to the cell culture plate (25 uL/well). • HC (High control): 25 μL of 0.1% BSA detection buffer containing 0.2% DMSO. • LC (Low control): 25 μL of solution containing 2 μM positive antagonist. • c) After centrifugation at 300 rpm for 15 seconds, the plate was incubated at 37° C. for 30 minutes. After the incubation with the compound was completed, a dye solution (25 μL/well) was added and incubated at 37° C. for 30 minutes.
Inhibitor % activity=100−(signal value per well−average value for LC well)/(average value for H well−average value for LC well)*100%.

[4] = test system: Amphetamine-induced high locomotor activity in mice; test: Amphetamine-induced high locomotor activity (LMA) in mice; format: in vivo; parameters: Distance resulting from the activity, First 30 min / Distance resulting from the activity, Last 30 min: unit not given here; conditions: Amphetamine 1.0 mg/kg s.c.; 5 mg/kg p.o. (low dose group; olanzapine positive control); male ICR mice
Description: The test compound MDC was a milky white powder and stored in a shade and cool place (formulated with 1% DMSO before use). […] Amphetamine, purchased from Sigma-Aldrich, was a white powder (formulated with normal saline before use). 1% DMSO was formulated by diluting pure DMSO (purity>99.5, purchased from Sigma) with normal saline.
(§2) Male ICR mice having weight 22±2 g were kept at 8 mice/cage with 12/12 hours light/dark cycle, temperature 23° C.±1° C., humidity 50% to 60%, free to eat and drink water.
The administration volume was 0.1 ml/10 g body weight; Amphetamine was freshly formulated with normal saline at a dose of 1.0 mg/kg and administered subcutaneously.
(§3) After one week of acclimation, mice were randomly divided into 6 groups according to their body weight: negative control group, model group, positive control group, and low dose group, medium dose group and high dose group for the test compound. 8-10 animals/group.
(§4) Group 1: Negative control group: Normal saline (s.c.)+1% DMSO (10.0 ml/kg, p.o.);
Group 2: Model group: Amphetamine (1.0 mg/kg, s.c.)+1% DMSO (10.0 ml/kg, p.o.);
Group 4: MDC low dose group: Amphetamine (1.0 mg/kg, s.c.)+MDC (5 mg/kg, p.o.);
Group 5: MDC medium dose group: Amphetamine (1.0 mg/kg, s.c.)+MDC (10 mg/kg, p.o.);
Group 6: MDC high dose group: Amphetamine (1.0 mg/kg, s.c.)+MDC (20 mg/kg, p.o.).
After administration, the animals were immediately placed in a locomotor activity box and recorded by Shanghai Jiliang animal video analysis system for 1 hour.
(§5) After the experiment, the activity of the animals within 1 hour was analyzed using the trajectory analysis software of Shanghai Jiliang animal video analysis system to obtain the total distance resulting from the activity.

[5] = test system: PCP-induced high locomotor activity in mice; test: Phencyclidine (PCP) induced high locomotor activity (LMA) in mice; format: in vivo; parameters: Distance resulting from the activity, First 30 min / Distance resulting from the activity, Last 30 min: unit not given here; conditions: PCP 5.0 mg/kg s.c.; 5 mg/kg p.o. (low dose group; olanzapine positive control); male ICR mice
Excerpt: • 1. The effect of the compound on phencyclidine (PCP) induced high locomotor activity (LMA) in mice was detected.
The test compound MDC was milky white powder and stored in a shade and cool place (freshly formulated with 1% DMSO before use). […] Phencyclidine (PCP), purchased from Sigma Aldrich, was a grayish white powder (freshly formulated with normal saline before use). 1% DMSO was formulated by diluting pure DMSO (purity>99.5, purchased from Sigma-Aldrich) with normal saline.
as §2
The administration volume was 0.1 ml/10 g body weight; PCP was formulated with normal saline at a dose of 5 mg/kg.
The test compound MDC and olanzapine were administered by gavage and PCP was administered by subcutaneous injection.
as §3, §4
Group 2: Model group: PCP (5.0 mg/kg, s.c.)+1% DMSO (10.0 ml/kg, p.o.);
Group 4: MDC low dose group: PCP (5.0 mg/kg, s.c.)+MDC (5 mg/kg, p.o.);
Group 5: MDC medium dose group: PCP (5.0 mg/kg, s.c.)+MDC (10 mg/kg, p.o.);
Group 6: MDC high dose group: PCP (5.0 mg/kg, s.c.)+MDC (20 mg/kg, p.o.).
After oral administration, the animals were immediately placed in a locomotor activity box and recorded by Shanghai Jiliang ( ? ) animal video analysis system for 1 hour.
as §5

[6] = molecular target: T2, D4 receptor (Homo sapiens, UniProt P21917); conditions: Bioorg. Med. Chem. 17 (2009) 1716-1723; cited from earlier work
T2 sequence (P21917 1-419): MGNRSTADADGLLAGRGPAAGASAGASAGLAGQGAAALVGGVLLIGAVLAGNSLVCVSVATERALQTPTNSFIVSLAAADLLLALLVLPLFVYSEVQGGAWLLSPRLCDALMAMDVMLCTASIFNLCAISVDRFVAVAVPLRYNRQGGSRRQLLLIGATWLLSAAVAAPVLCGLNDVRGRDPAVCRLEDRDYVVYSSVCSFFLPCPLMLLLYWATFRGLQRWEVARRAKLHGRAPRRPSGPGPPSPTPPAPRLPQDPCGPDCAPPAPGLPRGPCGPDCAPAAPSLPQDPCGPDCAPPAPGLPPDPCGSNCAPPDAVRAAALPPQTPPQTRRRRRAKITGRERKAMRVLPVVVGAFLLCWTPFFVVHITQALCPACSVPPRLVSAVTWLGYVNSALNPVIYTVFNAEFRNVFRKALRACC

[7] = molecular target: T1, D2 receptor; conditions: Bioorg. Med. Chem. 17 (2009) 1716-1723; cited from earlier work

SMILES | pIC50 [1] | pIC50 [2] | pIC50 [3] | other results
Oc1cc(C2CCN(Cc3c[nH]c4ccccc34)C2)ccc1F (stereo not shown) [MDC-161502-031] | 7.65 | 7.84 | 7.55 | –
Oc1cccc(C2CCN(Cc3n[nH]c4ccccc34)C2)c1 (stereo not shown) [MDC-161502-033] | 8.17 | 8.64 | 6.96 | –
Oc1cccc(C2CCN(Cc3c[nH]c4ncccc34)C2)c1 (stereo not shown) [MDC-161502-034] | 8.69 | 8.70 | 6.16 | –
c1ccc2c(CN3CCC(c4ccc5cn[nH]c5c4)C3)c[nH]c2c1 (stereo not shown) [MDC-161502-036] | 6.53 | 6.33 | 6.07 | –
c1ccc2c(CN3CCC(c4ccc5nc[nH]c5c4)C3)c[nH]c2c1 (stereo not shown) [MDC-161502-037] | 6.34 | 6.57 | 6.72 | –
c1ccc2c(CN3CCC(c4cccc5[nH]ncc45)C3)c[nH]c2c1 (stereo not shown) [MDC-161502-038] | 7.99 | 8.21 | 7.06 | –
c1ccc2c(CN3CCC(c4ccc5[nH]nnc5c4)C3)c[nH]c2c1 (stereo not shown) [MDC-161502-040] | – | – | 7.28 | –
Cc1cc2c(s1)Nc1ccccc1N=C2N1CCN(C)CC1 [Olanzapine, olanzapine, reference compound] | – | – | – | Distance resulting from the activity, First 30 min [4]: 227653; Distance resulting from the activity, Last 30 min [4]: 158673; Distance resulting from the activity, First 30 min [5]: 208491; Distance resulting from the activity, Last 30 min [5]: 80518
OC1(c2ccc(Cl)cc2)CCN(Cc2c[nH]c3ccccc23)C1 (stereo not shown) [compound 4] | – | – | – | D4 receptor antagonism (in words) [6]: moderate intensity of D4 receptor antagonism; Antagonism to D2 receptor (in words) [7]: substantially no antagonism to D2 receptor
